Assay: pKa of oil formers by titration with tetrabutylammonium hydroxide
Type: physicochemical
Conditions: titration with TBAH in dimethyl sulfoxide/water (100:0.25)

## tricresyl phosphate [TCP]
  pKa of oil former: >20
